Test results reported in paper PMC10424716, “Discovery selective acetylcholinesterase inhibitors to control Tetranychus urticae (Acari: Tetranychidae)” (Journal of Insect Science, 2023).
Where two headings read alike, the source gives them in different places.

Target: T1, T. urticae AChE (TuAChE) (Tetranychus cinnabarinus, UniProt M9T420)
T1 construct: gene ace1; methods also mention mite extracts
T1 sequence (M9T420 1-687): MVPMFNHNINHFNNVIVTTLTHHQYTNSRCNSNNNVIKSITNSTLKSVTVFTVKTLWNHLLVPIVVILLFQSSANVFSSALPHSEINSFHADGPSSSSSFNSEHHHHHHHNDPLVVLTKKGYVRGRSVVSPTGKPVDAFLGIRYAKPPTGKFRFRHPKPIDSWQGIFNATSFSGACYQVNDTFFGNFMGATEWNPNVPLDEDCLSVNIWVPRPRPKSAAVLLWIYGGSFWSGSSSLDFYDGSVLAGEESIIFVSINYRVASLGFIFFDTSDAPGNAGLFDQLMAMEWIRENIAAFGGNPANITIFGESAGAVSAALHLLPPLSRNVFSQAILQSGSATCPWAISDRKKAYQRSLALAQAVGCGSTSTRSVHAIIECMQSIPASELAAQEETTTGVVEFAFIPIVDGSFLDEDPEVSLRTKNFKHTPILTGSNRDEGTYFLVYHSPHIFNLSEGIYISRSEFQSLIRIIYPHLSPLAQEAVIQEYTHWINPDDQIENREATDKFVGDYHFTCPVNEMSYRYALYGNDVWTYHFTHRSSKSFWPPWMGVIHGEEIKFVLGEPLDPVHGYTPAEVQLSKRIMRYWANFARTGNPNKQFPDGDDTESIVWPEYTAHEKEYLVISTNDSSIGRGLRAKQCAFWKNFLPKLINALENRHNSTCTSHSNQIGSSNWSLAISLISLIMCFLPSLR
Assay: modified Ellman assay, […] nm
Type: biochemical

Structure (SMILES) | IC50 [mM] | IC50 (read-out: IC50(mM) / TuAChE) [mM]
CNC(=O)Oc1ccc2c(c1)[C@]1(C)CCN(C)[C@@H]1N2C [eserine] | 3.81 | –
O=C(c1ccc2occc2c1)N1CCC(OCc2ccccc2)CC1 [compound 8, 1-(1-benzofuran-5-ylcarbonyl)-4-(benzyloxy) piperidine] | – | 1.51
